Measurements reported in patent US20240376094A2, “SELECTIVE BCL-XL PROTAC COMPOUNDS AND METHODS OF USE” (Les Laboratoires Servier, priority 2021, published 2024).

Tests used:
[1] = test system: EBC-1 lung cancer cell line; assay: EBC-1 cell proliferation, CellTiter-Glo assay; assay type: cell-based; details: Homo sapiens, 120 h; Ebc-1 cell viability, CTG assay, 5 days of treatment; read-out: CTG 5 day Ebc1 GI50
Experimental: (§1) The ability of the BCL-xL degrader low molecular weight compounds to inhibit cell proliferation and survival was assessed using the Promega CellTiter-Glo® proliferation assay on the EBC-1 lung cancer cell line (RCB1965, obtained from RIKEN.) The cells were cultured in media that is optimal for their growth at 5% CO2, 37° C. in a tissue culture incubator. Prior to seeding for the proliferation assay, the cells were split at least 2 days before the assay to ensure optimal growth density. On the day of seeding, cells were lifted off tissue culture flasks using 0.25% trypsin. Cell viability and cell density were determined using a cell counter (Vi-Cell XR Cell Viability Analyzer, Beckman Coulter). Cells with higher than 85% viability were seeded in white clear bottom 384-well plates (Greiner cat #781098) at a density of 1000 cells per well in 50 μL of standard growth media. Plates were incubated at 37° C. overnight in a tissue culture incubator.
The BCL-xL degrader low molecular weight compounds were prepared to desired concentrations. A series of 10 dilutions were made for each prepared compound. The prepared compounds were then added to the cells resulting in final concentrations of 0.508 nM-10 μM. An acoustic transfer device (Echo555, Beckman Coulter) was used to add the compounds to the cells. Each treatment was tested in triplicate assay plates. Plates were incubated at 37° C. overnight or for 5 days in a tissue culture incubator. The ability of the compounds to inhibit cell proliferation and survival was assessed using the Promega CellTiter-Glo® proliferation assay. Plates were incubated at room temperature for 20 minutes to stabilize luminescent signals prior to reading using a multimode plate reader (PHERAstar FSX Microplate Reader, BMG Labtech).
To evaluate the effect of the compound treatments, luminescent counts of untreated cells were taken the day after seeding (Day 0 readings), and after 5 days of treatment (Day 5 readings). The Day 5 readings of the untreated cells were compared to the Day 0 readings. Assays with at least one cell doubling during the incubation period were considered valid. To evaluate the effect of the drug treatments, luminescent counts from wells containing untreated cells (100% viability) were used to normalize treated samples. The concentrations of treatment required to inhibit 50% of cell growth or survival ([…]) were calculated using a four parameter logistic regression equation.

[2] = molecular target: T1, HiBiT-tagged BCL-xL (Homo sapiens, UniProt Q07817); assay: NCI-H1650 BCL-xL protein levels, Nano-Glo HiBiT Lytic Detection; assay type: cell-based; details: NCI-H1650 expressing HiBiT-tagged BCL-xL, overnight incubation, read-out: Bcl-xl HIBIT NCIH1650 DC50
T1 construct: expressed in transfected cells; host or cells: NCI-H1650 (ATCC No. CRL-5883), engineered HiBiT cell line
Experimental: as §1, with “degrade BCL-xL protein” for “inhibit cell proliferation and survival”, “Nano-Glo® HiBiT Lytic Detection System. The NCI-H1650 (ATCC No. CRL-5883) was engineered to express HiBiT-tagged BCL-xL. The NCI-H1650 HiBiT” for “CellTiter-Glo® proliferation assay on the EBC-1 lung cancer”, “was” for “(RCB1965, obtained from RIKEN.) The cells were”, “protein level” for “proliferation”, “5000” for “1000”, “30” for “50”
The BCL-xL degrader low molecular weight compounds were prepared to desired concentrations. A series of 10 dilutions were made for each prepared compound. The prepared compounds were then added to the cells resulting in final concentrations of 0.508 nM-10 μM. An acoustic transfer device (Echo555, Beckman Coulter) was used to add the compounds to the cells. Each treatment was tested in triplicate assay plates. Plates were incubated at 37° C. overnight in a tissue culture incubator.
BCL-xL degradation was assessed through the addition of 30 μL of Nano-Glo® HiBiT Lytic Reagent (Promega, cat #N3040), a reagent which lyses cells and contains a furimazine substrate and the large subunit (LgBiT) used in NanoLuc® Binary Technology. The LgBiT subunit having high affinity to a HiBiT-tagged protein will bind HiBiT, if present, resulting in complex formation of a luminescent NanoBiT® enzyme. This reaction will emit a luminescent signal proportional to the amount of HiBiT-tagged BCL-xL present in the cell lysate. Plates were incubated at room temperature for 20 minutes to stabilize luminescent signals prior to reading using a luminescence reader (PHERAstar FSX Microplate Reader, BMG Labtech).
To evaluate the effect of the drug treatments, luminescent counts from wells containing untreated cells (100% HiBiT-tagged BCL-xL) were used to normalize treated samples. The concentrations of treatment required to inhibit 50% were calculated using a four parameter logistic regression equation.

T1 sequence (Q07817 whole entry): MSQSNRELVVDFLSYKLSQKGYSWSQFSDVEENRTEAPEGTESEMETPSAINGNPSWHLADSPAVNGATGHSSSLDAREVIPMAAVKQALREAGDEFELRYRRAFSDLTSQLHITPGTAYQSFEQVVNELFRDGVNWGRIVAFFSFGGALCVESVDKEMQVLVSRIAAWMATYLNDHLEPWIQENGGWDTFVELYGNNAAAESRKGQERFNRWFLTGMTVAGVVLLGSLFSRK

SMILES	GI50 [1]	DC50 [2]
Cc1ncsc1-c1ccc([C@H](C)NC(=O)[C@@H]2C[C@@H](O)CN2C(=O)[C@@H](NC(=O)C[C@H]2CC[C@H](NC(=O)c3nc(N4CCCc5c4nnc(Nc4nc6ccccc6s4)c5C)ccc3-c3cnn(CC45CC6(C)CC(C)(C4)CC(OCCN4CCCC4)(C6)C5)c3C)CC2)C(C)(C)C)cc1 [Example 164, 6-(3-(benzo[d]thiazol-2-ylamino)-4-methyl-6,7-dihydropyrido[2,3-c]pyridazin-8(5H)-yl)-3-(1-(((1r,3R,5S,7s)-3,5-dimethyl-7-(2-(pyrrolidin-1-yl)ethoxy)adamantan-1-yl)methyl)-5-methyl-1H-pyrazol-4-yl)-N-((1S,4R)-4-(2-(((S)-1-((2S,4R)-4-hydroxy-2-(((S)-1-(4-(4-methylthiazol-5-yl)phenyl)ethyl)carbamoyl)pyrrolidin-1-yl)-3,3-dimethyl-1-oxobutan-2-yl)amino)-2-oxoethyl)cyclohexyl)picolinamide]	35 nM	2 nM
Cc1ncsc1-c1ccc([C@H](C)NC(=O)[C@@H]2C[C@@H](O)CN2C(=O)[C@@H](NC(=O)[C@H]2CCCN(C(=O)c3nc(N4CCCc5c4nnc(Nc4nc6ccccc6s4)c5C)ccc3-c3cnn(CC45CC6(C)CC(C)(C4)CC(OCCN4CCCC4)(C6)C5)c3C)C2)C(C)(C)C)cc1 [Example 168, (S)-1-(6-(3-(benzo[d]thiazol-2-ylamino)-4-methyl-6,7-dihydropyrido[2,3-c]pyridazin-8(5H)-yl)-3-(1-(((1r,3R,5S,7R)-3,5-dimethyl-7-(2-(pyrrolidin-1-yl)ethoxy)adamantan-1-yl)methyl)-5-methyl-1H-pyrazol-4-yl)picolinoyl)-N—((S)-1-((2S,4R)-4-hydroxy-2-(((S)-1-(4-(4-methylthiazol-5-yl)phenyl)ethyl)carbamoyl)pyrrolidin-1-yl)-3,3-dimethyl-1-oxobutan-2-yl)piperidine-3-carboxamide]	73 nM	> 1670 nM
Cc1ncsc1-c1ccc([C@H](C)NC(=O)[C@@H]2C[C@@H](O)CN2C(=O)[C@@H](NC(=O)CCC(=O)N2CCC[C@@H](NC(=O)c3nc(N4CCCc5c4nnc(Nc4nc6ccccc6s4)c5C)ccc3-c3cnn(CC45CC6(C)CC(C)(C4)CC(OCCN4CCCC4)(C6)C5)c3C)C2)C(C)(C)C)cc1 [Example 171]	121 nM	> 1670 nM

Further compounds by falling GI50 [1], results first:

GI50 [1]	DC50 [2]	SMILES
136 nM	2 nM	Cc1ncsc1-c1ccc([C@H](C)NC(=O)[C@@H]2C[C@@H](O)CN2C(=O)[C@@H](NC(=O)CCOC2CCN(C(=O)c3nc(N4CCCc5c4nnc(Nc4nc6ccccc6s4)c5C)ccc3-c3cnn(CC45CC6(C)CC(C)(C4)CC(OCCN4CCCC4)(C6)C5)c3C)CC2)C(C)(C)C)cc1 [Example 167, (2S,4R)-1-((S)-2-(3-((1-(6-(3-(benzo[d]thiazol-2-ylamino)-4-methyl-6,7-dihydropyrido[2,3-c]pyridazin-8(5H)-yl)-3-(1-(((1r,3R,5S,7s)-3,5-dimethyl-7-(2-(pyrrolidin-1-yl)ethoxy)adamantan-1-yl)methyl)-5-methyl-1H-pyrazol-4-yl)picolinoyl)piperidin-4-yl)oxy)propanamido)-3,3-dimethylbutanoyl)-4-hydroxy-N—((S)-1-(4-(4-methylthiazol-5-yl)phenyl)ethyl)pyrrolidine-2-carboxamide]
68 nM	1 nM	Cc1ncsc1-c1ccc([C@H](C)NC(=O)[C@@H]2C[C@@H](O)CN2C(=O)[C@@H](NC(=O)COC2CCN(C(=O)c3nc(N4CCCc5c4nnc(Nc4nc6ccccc6s4)c5C)ccc3-c3cnn(CC45CC6(C)CC(C)(C4)CC(OCCN4CCCC4)(C6)C5)c3C)CC2)C(C)(C)C)cc1 [Example 166, (2S,4R)-1-((S)-2-(2-((1-(6-(3-(benzo[d]thiazol-2-ylamino)-4-methyl-6,7-dihydropyrido[2,3-c]pyridazin-8(5H)-yl)-3-(1-(((1r,3R,5S,7s)-3,5-dimethyl-7-(2-(pyrrolidin-1-yl)ethoxy)adamantan-1-yl)methyl)-5-methyl-1H-pyrazol-4-yl)picolinoyl)piperidin-4-yl)oxy)acetamido)-3,3-dimethylbutanoyl)-4-hydroxy-N—((S)-1-(4-(4-methylthiazol-5-yl)phenyl)ethyl)pyrrolidine-2-carboxamide]
35 nM	> 1670 nM	Cc1ncsc1-c1ccc([C@H](C)NC(=O)[C@@H]2C[C@@H](O)CN2C(=O)[C@@H](NC(=O)[C@H]2C[C@H](NC(=O)c3nc(N4CCCc5c4nnc(Nc4nc6ccccc6s4)c5C)ccc3-c3cnn(CC45CC6(C)CC(C)(C4)CC(OCCN4CCCC4)(C6)C5)c3C)C2)C(C)(C)C)cc1 [Example 165, 6-(3-(benzo[d]thiazol-2-ylamino)-4-methyl-6,7-dihydropyrido[2,3-c]pyridazin-8(5H)-yl)-3-(1-(((1r,3R,5S,7s)-3,5-dimethyl-7-(2-(pyrrolidin-1-yl)ethoxy)adamantan-1-yl)methyl)-5-methyl-1H-pyrazol-4-yl)-N-((1S,3R)-3-(((S)-1-((2S,4R)-4-hydroxy-2-(((S)-1-(4-(4-methylthiazol-5-yl)phenyl)ethyl)carbamoyl)pyrrolidin-1-yl)-3,3-dimethyl-1-oxobutan-2-yl)carbamoyl)cyclobutyl)picolinamide]
13 nM	1 nM	Cc1ncsc1-c1ccc([C@H](C)NC(=O)[C@@H]2C[C@@H](O)CN2C(=O)[C@@H](NC(=O)CC2CC3(C2)CN(C(=O)c2nc(N4CCCc5c4nnc(Nc4nc6ccccc6s4)c5C)ccc2-c2cnn(CC45CC6(C)CC(C)(C4)CC(OCCN4CCCC4)(C6)C5)c2C)C3)C(C)(C)C)cc1 [Example 170, (2S,4R)-1-((S)-2-(2-(2-(6-(3-(benzo[d]thiazol-2-ylamino)-4-methyl-6,7-dihydropyrido[2,3-c]pyridazin-8(5H)-yl)-3-(1-(((1r,3R,5S,7s)-3,5-dimethyl-7-(2-(pyrrolidin-1-yl)ethoxy)adamantan-1-yl)methyl)-5-methyl-1H-pyrazol-4-yl)picolinoyl)-2-azaspiro [3.3]heptan-6-yl)acetamido)-3,3-dimethylbutanoyl)-4-hydroxy-N—((S)-1-(4-(4-methylthiazol-5-yl)phenyl)ethyl)pyrrolidine-2-carboxamide]
6 nM	> 1670 nM	Cc1ncsc1-c1ccc([C@H](C)NC(=O)[C@@H]2C[C@@H](O)CN2C(=O)[C@@H](NC(=O)[C@@H]2CCCN(C(=O)c3nc(N4CCCc5c4nnc(Nc4nc6ccccc6s4)c5C)ccc3-c3cnn(CC45CC6(C)CC(C)(C4)CC(OCCN4CCCC4)(C6)C5)c3C)C2)C(C)(C)C)cc1 [Example 169, (R)-1-(6-(3-(benzo[d]thiazol-2-ylamino)-4-methyl-6,7-dihydropyrido[2,3-c]pyridazin-8(5H)-yl)-3-(1-(((1r,3R,5S,7S)-3,5-dimethyl-7-(2-(pyrrolidin-1-yl)ethoxy)adamantan-1-yl)methyl)-5-methyl-1H-pyrazol-4-yl)picolinoyl)-N—((S)-1-((2S,4R)-4-hydroxy-2-(((S)-1-(4-(4-methylthiazol-5-yl)phenyl)ethyl)carbamoyl)pyrrolidin-1-yl)-3,3-dimethyl-1-oxobutan-2-yl)piperidine-3-carboxamide]
